Test results: patent US6682908B1, “Mouse growth hormone secretagogue receptor” (Merck & Co., Inc., priority 1998, dated 2004)

Target: T1, mouse GHS-R (Mus musculus, UniProt Q99P50)
T1 construct: the complete and contiguous open reading frame of mGHS-R; expressed in transfected cells; host or cells: 293-AEQ17 (aequorin-expressing reporter cell line), transiently transfected with pcDNA-3/mouse GHS-R
Assay: aequorin bioluminescence assay of mouse GHS-R expressed in 293-AEQ17 cells
Format: cell-based
Settings: expression of the complete and contiguous open reading frame of mGHS-R; aequorin biolumenescence assay
Experimental: The mouse isoform of the previously identified GHS-R was cloned from two genomic DNA libraries for the generation of a GHS-R knock-out mouse.
The cells were harvested, washed once in ECB medium and resuspended to 500,000 cells/ml. One hundred (100) […] of cell suspension (corresponding to 5×10^4 cells) was then injected into each well of a 96-well microtiter test plate, and the integrated light emission was recorded over 30 seconds, in 0.5 second units. Twenty (20) μl of lysis buffer (0.1% final Triton X-100 concentration) was then injected and the integrated light emission recorded over 10 seconds, in 0.5 second units. The “fractional response” values for each well were calculated by taking the ratio of the integrated response to the initial challenge to the total integrated luminescence including the Triton X-100 lysis response. Data were analyzed using GraphPad Prism software V.2.0 (GraphPad Software, San Diego, Calif.).

T1 sequence (Q99P50 whole entry): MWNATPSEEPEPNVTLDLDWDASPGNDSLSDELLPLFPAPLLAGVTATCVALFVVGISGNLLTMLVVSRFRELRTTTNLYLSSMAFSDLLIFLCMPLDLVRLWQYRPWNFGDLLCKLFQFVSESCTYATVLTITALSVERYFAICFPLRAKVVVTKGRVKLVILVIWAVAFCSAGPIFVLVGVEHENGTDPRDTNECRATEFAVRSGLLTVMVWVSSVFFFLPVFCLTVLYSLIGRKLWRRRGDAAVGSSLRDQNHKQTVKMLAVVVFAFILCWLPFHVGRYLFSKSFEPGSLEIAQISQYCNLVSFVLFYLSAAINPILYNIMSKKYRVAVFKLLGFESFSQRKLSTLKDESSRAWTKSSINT

Row | Compound | functional activation of mGHS-R
1 | GHRP-6 | functionally activated
2 | CC(C)(N)C(=O)N[C@H](COCc1ccccc1)C(=O)N1CCC2(CC1)CN(S(C)(=O)=O)c1ccccc12 [MK-0677] | functionally activated
